Results: US4108973A, “Immunoassay for catecholamines” (Hoffmann-La Roche Inc., priority 1976, dated 1978)

Target: Ab-7^123 dl-Met complex (epinephrine type catecholamine antibody)
Test: Antibody specificity: 50% inhibition of antibody-labelled dl-metanephrine complex (competitive binding radioimmunoassay)
Set-up: species or system rabbit
Conditions: amount for 50% inhibition; incubation volume 0.5 or 1.0 ml
Description: The specificity of an epinephrine type catecholamine antibody suitable for use in the practice of the present method is set forth below in Table 1:
For immunization of rabbits, 10 mg. of each of the products of Example 8 or Example 9 was dissolved in 1 ml. of phosphate buffered saline and emulsified with 1 ml. of complete Freund's adjuvant. The second inoculation was given three weeks later and consisted of 1.5 mg. immunogen in 1 ml. PBS emulsified with 1 ml. of complete Freund's adjuvant. The third injection, five weeks after the first, employed the same concentration of antigen but was in incomplete Freund's adjuvant. Immunizations were by the subcutaneous route.
A competitive binding radioimmunoassay procedure is used similar to that described in U.S. Pat. No. 3,704,282. An incubation volume of either 0.5 or 1.0 ml. is used and antibody-label complex is separated from free label by precipitation with saturated

Row | Structure (SMILES) | 50 % INHIBITION OF Ab-7^123 dl-Met OMPLEX [ng]
1 | CNCC(O)c1ccc(O)c(OC)c1 (racemic) [dl-Metanephrine] | 0.050
2 | CNCC(O)c1ccc(O)cc1 (racemic) [dl-Synephrine] | 0.100
3 | CNC[C@H](O)c1ccc(O)c(O)c1 [1-Epinephrine] | 0.250
4 | NC[C@H](O)c1ccc(O)c(O)c1 [1-Norepinephrine] | > 500
5 | CNC[C@H](O)c1cccc(O)c1 [1-Phenylephrine] | 0.060
6 | CC(N)Cc1ccccc1 (stereo not shown) [Amphetamine] | > 500
7 | N[C@@H](Cc1ccc(O)c(O)c1)C(=O)O [DOPA] | > 500
8 | NCCc1ccc(O)c(O)c1 [Dopamine] | > 500
9 | CNC(C)C(O)c1ccccc1 (stereo not shown) [Ephedrine] | > 500
10 | CNCCc1ccc(O)c(O)c1 [Epinine] | 0.350
11 | CC(C)NCC(O)c1ccc(O)c(O)c1 (stereo not shown) [Isoproterenol] | > 500
12 | CNC(C)Cc1ccccc1 (stereo not shown) [Methamphetamine] | > 500
13 | NCCc1c[nH]c2ccc(O)cc12 [Sezotosin] | > 500
